Values of other authors as cited in patent publication US7022698B2, “Pharmaceutical compositions containing new polymorphic forms of olanzapine and uses thereof” (U & I Pharmaceuticals, Ltd., priority 1999, dated 2006).
Read-outs that look alike come from different tables or passages of the source.

How the values were obtained:
[1] = tested on: schizophrenia and schizoaffecive and schizophreniform disorders; conditions: for Montgomery-Asberg Depression Rating Scale (MADRS) total score, baseline to endpoint decline: 6-week trial, p=0.001
[2] = tested on: patients with Alzheimer's disease (AD)
[3] = tested on: patients with schizophrenia; conditions: 10 mg/day, in comparison with olanzapine 1 mg/day or placebo
[4] = tested on: patients with Acute Mania; conditions: 5–20 mg/day
[5] = tested on: serotonin (5-HT) receptors
[6] = tested on: bipolar type I patients; conditions: mean dose 13.8 mg/day
[7] = tested on: psychotic mood disorders patients and schizophrenic patients
[8] = tested on: α1-adrenergic receptors
[9] = tested on: muscarinic cholinergic receptor
[10] = tested on: dopamine receptors (D1 to D5)
[11] = tested on: inpatients with psychotic depression
[12] = tested on: inpatients with a diagnosis of psychotic disorders

## O=C(CCCN1CCC(O)(c2ccc(Cl)cc2)CC1)c1ccc(F)cc1 [haloperidol]
[1]
  Montgomery-Asberg Depression Rating Scale (MADRS) total score, baseline to endpoint decline: 3 point

## Cc1cc2c(s1)Nc1ccccc1N=C2N1CCN(C)CC1 [olanzapine, 2-methyl-4-(4-methyl-1-piperazinyl)-10H-thieno-[2,3b][1,5] benzodiazepine]
[1]
  Montgomery-Asberg Depression Rating Scale (MADRS) total score, baseline to endpoint decline: 6 point
[1]; subanalysis, schizoaffective patients currently depressed, p=0.002
  reduction of the MADRS scores: superior to haloperidol
[1]; subanalysis, schizoaffective patients currently manic, p=0.25
  decrease of Brief Psychiatric Rating Scale (BPRS) mania score: as effective as haloperidol
[2]; 5-mg/day dose
  efficacy in reducing psychotic symptoms, parent study: most efficacious
  safety, parent study: safest
[2]; 10-mg/day dose, relative to placebo
  efficacy in reducing psychotic symptoms, parent study: significant efficacy
[2]; 15-mg/day dose
  expression of psychotic symptoms, parent study: failed to separate from the placebo group
  safety, parent study: less tolerated safety profile
[2]; possible AD with agitation/aggression and no or minimal hallucinations and/or delusions
  emergence of psychotic symptoms compared to placebo: significantly lower emergence of psychotic symptoms
[3]
  Hamilton Rating Scale for Depression scores: significant reduction
[4]; p=0.02 vs placebo
  percentage of patients who discontinued treatment because of lack of efficacy: 28.6%
[4]; responder analysis
  patients with an improvement of 50% or more in Young Mania Rating Scale total score: 48.6%
[5]
  affinity for serotonergic receptors: nanomolar affinity
[5]; 5-HT2A, 5-HT2B, 5-HT2C, and 5-HT6 receptors
  inhibition of 5-HT receptors: potent inhibitor
[6]; 113 patients
  HAM-D score at baseline: 12.2
  YMRS score at baseline: 25.5
[6]; average 6.7 months, p<0.001
  HAM-D score on follow-up: 6.5
  YMRS score on follow-up: 7.5
[6]
  EPS: Few EPS were noted
[7]; psychotic mood disorders group, psychological impairment, violence, and social skills subscales
  K Axis V subscale scores, baseline to follow-up: statistically significant change
[7]; psychotic mood disorders patient group (24/32)
  patients remaining hospitalized at follow-up: Seventy-five
[7]; psychotic mood disorders patients (N=32) and schizophrenic patients (N=18) who continued olanzapine
  change on the CGI and GAF-EQ: statistically significant change toward improvement
[7]; schizophrenic group, only on the violence subscale
  K Axis V subscale scores, baseline to follow-up: significant change in score only on the violence subscale
[7]; schizophrenic patients (18/18)
  patients remaining hospitalized at follow-up: 100%
other
  mesolimbic and mesocortical selectivity: mesolimbic and mesocortical selectivity
[8]
  affinity for α1-adrenergic receptors: nanomolar affinity
  inhibition of α-adrenergic receptor: potent inhibitor
[9]
  affinity for muscarinic receptors: nanomolar affinity
[9]; all five subtypes
  inhibition of muscarinic cholinergic receptor: potent inhibitor
[10]
  affinity for dopaminic receptors: nanomolar affinity
[10]; D1 to D5
  binding selectivity among dopamine receptors: relatively non-selective binding
[11]
  response rate: 67%
[12]; all patients
  overall response rate: 62%
[12]; bipolar disorder patients
  response rate: 83%
